Source: patent US9207232B2, “Ceramide derivative and Golgi apparatus-labeling fluorescent probe using same” (National University Corporation Chiba University, priority 2011, dated 2015)
Where “and” joins values, the source holds several entries; their conditions need not be identical. Equal values may be shown once.

Columns and labels:
[1] = system: Golgi apparatus in CHO cells; test: Changes in localization to the Golgi apparatus over time (fluorescence observation); type: cell-based, hamster; conditions: 1 μM, 1, 2, 6, 24 or 48 hours at 37° C.
Procedure: Subsequently, it was evaluated whether or not the localization of the compound 9 in the Golgi apparatus can be maintained over a long period of time. Specifically, by the method similar to that described above, the compound 9 or the NBD-C6-ceramide (negative control) (each of both is in 1 μM) was added, then the resultant mixture was cultured at 37° C. for 1, 2, 6, 24, or 48 hours, and the fluorescence (green) derived from the compound was observed.
The upper part of FIG. 4 is a set of pictures showing the results of the observation for the NBD-C6-ceramide (negative control), the pictures were taken by using a photomultiplier tube PMT:430. The middle part of FIG. 4 is a set of pictures showing the results of the observation for the compound 9, the pictures were taken by using a photomultiplier tube PMT:430. The lower part of FIG. 4 is a set of pictures showing the results of the observation for the compound. 9, the pictures were taken by using a photomultiplier tube PMT:500. At this point, the expression of “430” or “500” means detection sensitivity (size of the energy required to detect the emission derived from a compound), and the smaller the value, the higher the sensitivity. […]

CHO cells [2] = test: Evaluation of cytotoxicity (changes in cell number); type: cell-based, hamster; conditions: 10 μM; for cell number after addition (24 hours) relative to before addition: before addition = 100%, no additives 170 ± 51%; for cell number after addition (24 hours): serum-free medium, before addition 12,600 cells/well
Procedure: Subsequently, as to the compound 9 synthesized in the above, the cytotoxicity was evaluated as the effect on the change in cell number.
Firstly, the CHO cells were seeded into each well of a 24-well plate at 1×10^4 cells/well, and cultured in a Ham's F12(+) medium at 37° C. for one day. The cell number one day after the culture was 1.26×10^4 cells/well. After that, medium exchange to a medium in which 0.1% BSA and 10 mM HEPES are added into a Ham's F12(−) medium which is a serum-free medium was performed, and in the presence of the compound 9 (10 μM), the culture was further performed for one day. Further, as a negative control, the same experiment was performed with the NBD-C6-ceramide described in Non Patent Literature 1. In addition, the same experiment was also performed for the case of no additives.

CHO cells [3] = test: Evaluation of incorporation into cell (fluorescence of organic layer extract); type: cell-based, hamster; conditions: 10 μM, 1, 2, 6, 24 or 48 hours at 37° C.
Procedure: Firstly, the CHO cells were seeded into each well of a 24-well plate at 2×10^4 cells/well, and cultured in a Ham's F12(+) medium at 37° C. for one day. After that, medium exchange to a medium in which 0.1% BSA and 10 mM HEPES are added into a Ham's F12(−) medium which is a serum-free medium was performed, and the culture was further performed at 37° C. for 18 hours, then into which the compound 9 (10 μM) was added. After the addition, the resultant mixture was cultured at 37° C. for 1, 2, 6, 24, or 48 hours, and subjected to an assay. Further, as a negative control, the same experiment was performed with the NBD-C6-ceramide. […] Therefore, in this experiment, firstly, the cells were cultured for 18 hours in a serum-free medium, and the incorporation and metabolism of a serum-derived compound were decreased, then the test compound was added, and thus an experimental system was constructed such that the pure incorporation and metabolism of the test compound itself can be measured.
As the assay, firstly, the incorporation of the ceramide derivative (compound 9) into a cell was evaluated. […]
Subsequently, the obtained organic layer sample was added into a 96-well plate, and the fluorescence emission of the ceramide derivative was detected by using an image analyzer (LAS1000, manufactured by FUJIFILM Corporation). […]

CHO cells [4] = test: Evaluation of cytotoxicity (alteration of cell shape); type: cell-based, hamster; conditions: 10 μM, serum-free medium, cultured one day
Procedure: As to the compound 9 synthesized in the above, the cytotoxicity was evaluated as the effect on the change in cell morphology.
As the cultured cells, cells obtained by the culture of CHO cells, which is a cell strain derived from the ovary of hamster, in a Ham's F12 medium were used.
Firstly, the CHO cells were seeded into each well of a 24-well plate at 2×10^4 cells/well, and cultured in a Ham's F12(+) medium at 37° C. for one day. After that, in order to eliminate the influence of ceramide, sphingosine, and the like, medium exchange to a medium in which 0.1% BSA and 10 mM HEPES are added into a Ham's F12(−) medium which is a serum-free medium was performed, and in the presence of the compound 9 (10 μM), the culture was further performed for one day. Further, as a negative control, the same experiment was performed with the a NBD-C6-ceramide described in Non Patent Literature 1.

[5] = system: Golgi apparatus in CHO cells; test: Evaluation of localization to the Golgi apparatus (co-staining with BODIPY-TR-Ceramide, confocal laser scanning microscope); type: cell-based, hamster; conditions: 1 μM, 1.5 hours, then BODIPY-TR-Ceramide 5 μM 30 minutes
Procedure: It was evaluated whether or not the localization of the compound 9 into a cell is really due to the localization to the Golgi apparatus. Specifically, BODIPY-TR-Ceramide (Cat D-7540 Red manufactured by Molecular Probes), which is another Golgi marker known to be difficult to be metabolized, was added together with the compound 9 into a cell, and the observation was performed by using a confocal laser scanning microscope.
Firstly, the CHO cells were seeded into each well of a 24-well plate at 0.5×10^4 cells/well, and cultured in a Ham's F12(+) medium at 37° C. for two days. […] After completion of the culture, the cells were washed twice in the same manner as described above, and then the fluorescence emission from the cells was observed. […] In addition, the time course of the cell culture and compound addition is the one recommended by data sheets or previous reports as the time course in which BODIPY-TR-Ceramide can be detected more sensitively. The observation was performed by using a confocal laser scanning microscope, and the measurement of the fluorescence emission from the BODIPY-TR-Ceramide was performed at the maximum excitation wavelength of 598 nm, and the maximum fluorescence wavelength of 617 nm, to measure the “red”. […]

cell = test: Staining of the Golgi apparatus with conventional probe (investigation by the present inventors); type: cell-based; conditions: cytotoxic effect
Procedure: A NBD-C6-ceramide has a cytotoxic effect, therefore, kills a cell itself within 24 hours from the incorporation into the cell, and thus the cell observation cannot be continued anymore. Further, an endogenous ceramide is metabolized into a glucosylceramide by being added with an oligosaccharide in the Golgi apparatus, or metabolized into sphingomyelin by receiving the transfer of phosphocholine from phosphatidylcholine, as a result, the metabolite is sent to cell membrane and becomes a component of the cell membrane. The NBD-C6-ceramide is, in the same manner as in the endogenous ceramide, metabolized to glucosylceramide or sphingomyelin in the Golgi apparatus, and the metabolite is transported to cell membrane from the Golgi in a few hours, therefore, the continuous staining is also difficult in this respect.

[6] = system: Golgi apparatus in CHO cells; conditions: 30 minutes after addition, or two hours later when metabolized; J Cell Biol. 1985; cited from earlier work
CHO cells [7] = test: Evaluation of intracellular metabolism by TLC; type: in vitro ADME, hamster; conditions: 10 μM
Procedure: Firstly, the CHO cells were seeded into each well of a 24-well plate at 2×10^4 cells/well, and cultured in a Ham's F12(+) medium at 37° C. for one day. After that, medium exchange to a medium in which 0.1% BSA and 10 mM HEPES are added into a Ham's F12(−) medium which is a serum-free medium was performed, and the culture was further performed at 37° C. for 18 hours, then into which the compound 9 (10 μM) was added. After the addition, the resultant mixture was cultured at 37° C. for 1, 2, 6, 24, or 48 hours, and subjected to an assay. Further, as a negative control, the same experiment was performed with the NBD-C6-ceramide. Herein, ceramide, sphingosine, and the like are contained in the serum, and the incorporation and metabolism of these substances are constantly in progress. Therefore, in this experiment, firstly, the cells were cultured for 18 hours in a serum-free medium, and the incorporation and metabolism of a serum-derived compound were decreased, then the test compound was added, and thus an experimental system was constructed such that the pure incorporation and metabolism of the test compound itself can be measured.
As the assay, firstly, the incorporation of the ceramide derivative (compound 9) into a cell was evaluated. Specifically, cells that had been cultured for a predetermined time in the presence of the compound were washed twice with HBSS (Hank's Balanced Salt Solution: pH 7.4) containing 0.1% BSA and 10 mM HEPES, and then using a cell scraper and 250 μL of HBSS, the cells were detached from the wells. Into the cell extract thus obtained, 500 μL of chloroform, 500 μL of methanol, and 250 μL of water were added, and the cell extract was prepared in two-layer form of an organic layer and an aqueous layer. Further, since the ceramide derivative and other major sphingolipids are compounds that migrate to the organic layer, the cell extract in two-layer form was centrifuged for 10 minutes under the conditions of 3000 rpm at 4° C., and thus only the organic layer was isolated.
On the other hand, as another assay, the metabolism of the ceramide derivative (compound 9) was evaluated. Specifically, 20 μL of the organic layer sample thus obtained above was spotted on a TLC plate, and developed with a development solvent (1-butanol:acetic acid:water=3:1:1), then the intracellular metabolism of the sample was evaluated by using an image analyzer (LAS1000).
Further, by using a free software (Image J), the abundance of each metabolite was converted into a numerical value. The results are shown in E) of FIG. 2 (NBD-C6-ceramide (negative control)), and F) of FIG. 2 (compound 9). In the meantime, the numerical value of each amount of C16-glucosylceramide-NBD-like molecules and C16-sphingomyelin-NBD-like molecules was determined from the mobility in the TLC.

fraction remaining as it is without being metabolized in 48 hours (CHO cells [7]; 48 hours) [%] | SMILES | fluorescence (emission) intensity in cells with the lapse of time [1] | cell number after addition (24 hours) relative to before addition (CHO cells [2]) | cell number after addition (24 hours) (CHO cells [2]) | amount incorporated into a cell with the lapse of time (CHO cells [3]) | alteration of cell shape (roundation) (CHO cells [4]) | co-localization with Golgi marker BODIPY-TR-Ceramide [5] | time from incorporation into the cell until the cell is killed (cell) [h] | retention in the Golgi apparatus after addition into a cell [6] | fraction that became a metabolite in 6 hours (CHO cells [7]) | amount of compound after metabolism in 24 hours (CHO cells [7]; 24 hours) | fraction metabolized in 48 hours (CHO cells [7]; 48 hours) [%] | cell number after addition (24 hours) relative to before addition (CHO cells [2]; listed as Acetyl-C16-ceramide-NBD) [%]
– | CCCCCCCCCCCCC/C=C/[C@@H](O)[C@H](CO)NC(=O)CCCCCNc1ccc([N+](=O)[O-])c2nonc12 [NBD-C6-ceramide] | attenuated with the lapse of time | 77% and 77 ± 2% | 9,690 ± 260 cells/well | decreased with the lapse of time | the alteration of cell shapge (roundation) was observed | co-localized with the BODIPY-TR-Ceramide | ≤ 24 | remains in the Golgi apparatus | 30% | decreased by half | ~90 | –
≥ 70 | CCCCCCCCCCCCCCCC(=O)N[C@@H](COC(C)=O)[C@H](O)/C=C/CCCCCCCCCNc1ccc([N+](=O)[O-])c2nonc12 [compound 9, (2S,3R)-(E)-3-hydroxy-14-((7-nitrobenzo[c][1,2,5]oxadiazole-4-yl)amino)-2-palmitamide tetradec-4-en-1-yl acetate] | gradually increased with the lapse of time | 159% | 20,000 ± 4100 cells/well | increased with the lapse of time | the roundation was not observed | co-localized with the BODIPY-TR-Ceramide | – | – | around 10% | – | – | 159 ± 33
